Assay results as given in publication PMC6100082, “Pyridine-Ureas as Potential Anticancer Agents: Synthesis and In Vitro Biological Evaluation” (Molecules : A Journal of Synthetic Chemistry and Natural …, 2018).

What was measured:
NCI 58 cell line panel = assay: NCI one-dose SRB assay, whole panel / subpanel summary; type: cell-based, human; details: for Mean Growth Percent: One Dose Mean Graph, 1.00E-5 Molar
Method: (§1) The structures of all the newly prepared pyridine-ureas 8a–n were submitted to the National Cancer Institute (NCI) Developmental Therapeutic Program. Eight compounds 8b, 8d, 8e, 8i, 8j and 8l–n were selected to be examined for their in vitro growth inhibitory activity. The anticancer assays were carried out according to the protocol of the Drug Evaluation Branch, NCI, Bethesda. The selected pyridine-ureas were tested at one dose primary anticancer assay against a panel of approximately 58 cancer lines (concentration 10^−5 M). The tested human cancer cell lines emerged from nine different cancer subtypes: leukemia, colon, melanoma, ovarian, lung, CNS, renal, breast and prostate cancers. The sulforhodamine B (SRB) protein assay was adopted to estimate the cell viability and growth. The results were reported as mean-graph of the percentage growth of the treated cells, and presented as percentage growth inhibition (GI%) caused by the test compounds (Table 2).
(§2) The anticancer assays were performed in accordance with the protocol of the Drug Evaluation Branch, NCI, Bethesda. A 48 h drug exposure protocol was used and sulforhodamine B (SRB) protein assay was applied to estimate the cell viability and growth, as reported earlier.

SNB-19 = assay: NCI one-dose SRB assay (CNS Cancer); type: cell-based, human; details: for Growth Percent: SNB-19, 1.00E-5 Molar
Method: as §1, §2

SF-295 = assay: NCI one-dose SRB assay (CNS Cancer); type: cell-based, human; details: for Growth Percent: SF-295, 1.00E-5 Molar
Method: as §1, §2

SNB-75 = assay: NCI one-dose SRB assay (CNS Cancer); type: cell-based, human; details: for Growth Percent: SNB-75, 1.00E-5 Molar
Method: as §1, §2

SF-539 = assay: NCI one-dose SRB assay (CNS Cancer); type: cell-based, human; details: for Growth Percent: SF-539, 1.00E-5 Molar
Method: as §1, §2

U251 = assay: NCI one-dose SRB assay (CNS Cancer); type: cell-based, human; details: for Growth Percent: U251, 1.00E-5 Molar
Method: as §1, §2

OVCAR-3 = assay: NCI one-dose SRB assay (Ovarian Cancer); type: cell-based, human; details: for Growth Percent: OVCAR-3, 1.00E-5 Molar
Method: as §1, §2

IGROV1 = assay: NCI one-dose SRB assay (Ovarian Cancer); type: cell-based, human; details: for Growth Percent: IGROV1, 1.00E-5 Molar
Method: as §1, §2

NCI/ADR-RES = assay: NCI one-dose SRB assay (Ovarian Cancer); type: cell-based, human; details: for Growth Percent: 1.00E-5 Molar
Method: as §1, §2

OVCAR-4 = assay: NCI one-dose SRB assay (Ovarian Cancer); type: cell-based, human; details: for Growth Percent: OVCAR-4, 1.00E-5 Molar
Method: as §1, §2

OVCAR-8 = assay: NCI one-dose SRB assay (Ovarian Cancer); type: cell-based, human; details: for Growth Percent: OVCAR-8, 1.00E-5 Molar
Method: as §1, §2

OVCAR-5 = assay: NCI one-dose SRB assay (Ovarian Cancer); type: cell-based, human; details: for Growth Percent: OVCAR-5, 1.00E-5 Molar
Method: as §1, §2

SK-OV-3 = assay: NCI one-dose SRB assay (Ovarian Cancer); type: cell-based, human; details: for Growth Percent: SK-OV-3, 1.00E-5 Molar
Method: as §1, §2

SW-620 = assay: NCI one-dose SRB assay (Colon Cancer); type: cell-based, human; details: for Growth Percent: SW-620, 1.00E-5 Molar
Method: as §1, §2

KM12 = assay: NCI one-dose SRB assay (Colon Cancer); type: cell-based, human; details: for Growth Percent: KM12, 1.00E-5 Molar
Method: as §1, §2

HCT-15 = assay: NCI one-dose SRB assay (Colon Cancer); type: cell-based, human; details: for Growth Percent: HCT-15, 1.00E-5 Molar
Method: as §1, §2

HT29 = assay: NCI one-dose SRB assay (Colon Cancer); type: cell-based, human; details: for Growth Percent: HT29, 1.00E-5 Molar
Method: as §1, §2

HCT-116 = assay: NCI one-dose SRB assay (Colon Cancer); type: cell-based, human; details: for Growth Percent: HCT-116, 1.00E-5 Molar
Method: as §1, §2

COLO 205 = assay: NCI one-dose SRB assay (Colon Cancer); type: cell-based, human; details: for Growth Percent: COLO 205, 1.00E-5 Molar
Method: as §1, §2

HCC-2998 = assay: NCI one-dose SRB assay (Colon Cancer); type: cell-based, human; details: for Growth Percent: HCC-2998, 1.00E-5 Molar
Method: as §1, §2

MDA-MB-231 = assay: NCI one-dose SRB assay (Breast Cancer); type: cell-based, human; details: for Growth Percent: MDA-MB-231/ATCC, 1.00E-5 Molar
Method: as §1, §2

HS 578T = assay: NCI one-dose SRB assay (Breast Cancer); type: cell-based, human; details: for Growth Percent: 1.00E-5 Molar
Method: as §1, §2

BT-549 = assay: NCI one-dose SRB assay (Breast Cancer); type: cell-based, human; details: for Growth Percent: BT-549, 1.00E-5 Molar
Method: as §1, §2

MDA-MB-468 = assay: NCI one-dose SRB assay (Breast Cancer); type: cell-based, human; details: for Growth Percent: MDA-MB-468, 1.00E-5 Molar
Method: as §1, §2

T-47D = assay: NCI one-dose SRB assay (Breast Cancer); type: cell-based, human; details: for Growth Percent: 1.00E-5 Molar
Method: as §1, §2

MCF7 = assay: NCI one-dose SRB assay (Breast Cancer); type: cell-based, human; details: for Growth Percent: MCF7, 1.00E-5 Molar
Method: as §1, §2

[1] = Homo sapiens, 10 μM, read-out: Percentage growth inhibition (GI%)

## 1-(4-Chloro-4-(trifluoromethyl)cyclohexa-2,5-dien-1-yl)-3-(6-(3,4-dimethoxyphenyl)-2-methylpyridin-3-yl)urea [Compound 8l]
NCI 58 cell line panel
  Mean Growth Percent: 68.99%
SNB-19; SNB-19, 10 μM
  Percentage growth inhibition (GI%): 22%
SNB-19
  Growth Percent: 78.75%
SF-295; SF-295, 10 μM
  Percentage growth inhibition (GI%): 29%
SF-295
  Growth Percent: 71.54%
SNB-75; SNB-75, 10 μM
  Percentage growth inhibition (GI%): 20%
SNB-75
  Growth Percent: 80.45%
SF-539; SF-539, 10 μM
  Percentage growth inhibition (GI%): 13%
SF-539
  Growth Percent: 87.81%
U251; U251, 10 μM
  Percentage growth inhibition (GI%): 45%
U251
  Growth Percent: 55.26%
OVCAR-3; OVCAR-3, 10 μM
  Percentage growth inhibition (GI%): 43%
OVCAR-3
  Growth Percent: 57.00%
IGROV1; IGROV1, 10 μM
  Percentage growth inhibition (GI%): 17%
IGROV1
  Growth Percent: 83.06%
NCI/ADR-RES; 10 μM
  Percentage growth inhibition (GI%): 31%
NCI/ADR-RES
  Growth Percent: 69.67%
OVCAR-4; OVCAR-4, 10 μM
  Percentage growth inhibition (GI%): 25%
OVCAR-4
  Growth Percent: 75.13%
OVCAR-8; OVCAR-8, 10 μM
  Percentage growth inhibition (GI%): 19%
OVCAR-8
  Growth Percent: 81.32%
OVCAR-5; OVCAR-5, 10 μM
  Percentage growth inhibition (GI%): 15%
OVCAR-5
  Growth Percent: 85.15%
SK-OV-3; SK-OV-3, 10 μM
  Percentage growth inhibition (GI%): 16%
SK-OV-3
  Growth Percent: 84.22%
SW-620; SW-620, 10 μM
  Percentage growth inhibition (GI%): 10%
SW-620
  Growth Percent: 90.92%
KM12; KM12, 10 μM
  Percentage growth inhibition (GI%): 30%
KM12
  Growth Percent: 70.44%
HCT-15; HCT-15, 10 μM
  Percentage growth inhibition (GI%): 51%
HCT-15
  Growth Percent: 49.62%
HT29; HT29, 10 μM
  Percentage growth inhibition (GI%): 44%
HT29
  Growth Percent: 56.20%
HCT-116; HCT-116, 10 μM
  Percentage growth inhibition (GI%): 55%
HCT-116
  Growth Percent: 45.30%
COLO 205; COLO 205, 10 μM
  Percentage growth inhibition (GI%): - (Only GI% higher than 10% are shown)
COLO 205
  Growth Percent: 93.52%
HCC-2998; HCC-2998, 10 μM
  Percentage growth inhibition (GI%): - (Only GI% higher than 10% are shown)
HCC-2998
  Growth Percent: 93.63%
MDA-MB-231; MDA-MB-231, 10 μM
  Percentage growth inhibition (GI%): 12%
MDA-MB-231
  Growth Percent: 88.41%
HS 578T; 10 μM
  Percentage growth inhibition (GI%): 19%
HS 578T
  Growth Percent: 81.01%
BT-549; BT-549, 10 μM
  Percentage growth inhibition (GI%): 12%
BT-549
  Growth Percent: 88.97%
MDA-MB-468; MDA-MB-468, 10 μM
  Percentage growth inhibition (GI%): 52%
MDA-MB-468
  Growth Percent: 48.57%
T-47D; 10 μM
  Percentage growth inhibition (GI%): 51%
T-47D
  Growth Percent: 49.20%
MCF7; MCF7, 10 μM
  Percentage growth inhibition (GI%): 42%
MCF7
  Growth Percent: 58.28%

## COc1ccc(-c2ccc(NC(=O)Nc3cccc(C(F)(F)F)c3)c(C)n2)cc1 [Compound 8b, 1-(6-(4-Methoxyphenyl)-2-methylpyridin-3-yl)-3-(3-(trifluoromethyl)phenyl) Urea]
other
  melting point: 189 to 191 °C
NCI 58 cell line panel; Homo sapiens, 10 μM, one dose, read-out: mean inhibition (mean % growth inhibition over NCI 58 cell line panel)
  inhibition at 10 µM: 43%
NCI 58 cell line panel
  Mean Growth Percent: 57.47%
SNB-19; Homo sapiens, SNB-19, 10 μM, read-out: Percentage growth inhibition (GI%)
  inhibition at 10 µM: 33%
SNB-19
  Growth Percent: 67.81%
SF-295; Homo sapiens, SF-295, 10 μM, read-out: Percentage growth inhibition (GI%)
  inhibition at 10 µM: 53%
SF-295
  Growth Percent: 47.56%
SNB-75; Homo sapiens, SNB-75, 10 μM, read-out: Percentage growth inhibition (GI%)
  inhibition at 10 µM: 23%
SNB-75
  Growth Percent: 77.64%
SF-539; Homo sapiens, SF-539, 10 μM, read-out: Percentage growth inhibition (GI%)
  inhibition at 10 µM: 20%
SF-539
  Growth Percent: 80.84%
U251; Homo sapiens, U-251, U251, 10 μM, read-out: Percentage growth inhibition (GI%)
  inhibition at 10 µM: 50%
U251
  Growth Percent: 50.16%
OVCAR-3; Homo sapiens, OVCAR-3, 10 μM, read-out: Percentage growth inhibition (GI%)
  inhibition at 10 µM: 59%
OVCAR-3
  Growth Percent: 41.93%
IGROV1; Homo sapiens, IGROV-1, IGROV1, 10 μM, read-out: Percentage growth inhibition (GI%)
  inhibition at 10 µM: < 10%
IGROV1
  Growth Percent: 91.33%
NCI/ADR-RES
  Growth Percent: 53.15%
NCI/ADR-RES; [1]
  inhibition at 10 µM: 47%
OVCAR-4; Homo sapiens, OVCAR-4, 10 μM, read-out: Percentage growth inhibition (GI%)
  inhibition at 10 µM: 58%
OVCAR-4
  Growth Percent: 42.94%
OVCAR-8; Homo sapiens, OVCAR-8, 10 μM, read-out: Percentage growth inhibition (GI%)
  inhibition at 10 µM: 39%
OVCAR-8
  Growth Percent: 61.89%
OVCAR-5; Homo sapiens, OVCAR-5, 10 μM, read-out: Percentage growth inhibition (GI%)
  inhibition at 10 µM: 17%
OVCAR-5
  Growth Percent: 83.05%
SK-OV-3; Homo sapiens, SK-OV-3, 10 μM, read-out: Percentage growth inhibition (GI%)
  inhibition at 10 µM: 18%
SK-OV-3
  Growth Percent: 82.08%
SW-620; Homo sapiens, SW-620, 10 μM, read-out: Percentage growth inhibition (GI%)
  inhibition at 10 µM: 19%
SW-620
  Growth Percent: 81.01%
KM12; Homo sapiens, KM12, 10 μM, read-out: Percentage growth inhibition (GI%)
  inhibition at 10 µM: 55%
KM12
  Growth Percent: 45.61%
HCT-15
  Growth Percent: 40.87%
HCT-15; Homo sapiens, HCT-15, 10 μM, read-out: Percentage growth inhibition (GI%)
  inhibition at 10 µM: 60%
HT29
  Growth Percent: 47.65%
HT29; Homo sapiens, HT-29, HT29, 10 μM, read-out: Percentage growth inhibition (GI%)
  inhibition at 10 µM: 53%
HCT-116
  Growth Percent: 26.93%
HCT-116; Homo sapiens, HCT-116, 10 μM, read-out: Percentage growth inhibition (GI%)
  inhibition at 10 µM: 74%
COLO 205
  Growth Percent: 84.52%
COLO 205; Homo sapiens, COLO 205, 10 μM, read-out: Percentage growth inhibition (GI%)
  inhibition at 10 µM: 16%
HCC-2998
  Growth Percent: 81.09%
HCC-2998; Homo sapiens, HCC-2998, 10 μM, read-out: Percentage growth inhibition (GI%)
  inhibition at 10 µM: 19%
MDA-MB-231; Homo sapiens, MDA-MB-231, 10 μM, read-out: Percentage growth inhibition (GI%)
  inhibition at 10 µM: 32%
MDA-MB-231
  Growth Percent: 68.55%
HS 578T
  Growth Percent: 88.85%
HS 578T; [1]
  inhibition at 10 µM: 12%
BT-549
  Growth Percent: 66.40%
BT-549; Homo sapiens, BT-549, 10 μM, read-out: Percentage growth inhibition (GI%)
  inhibition at 10 µM: 34%
MDA-MB-468; Homo sapiens, MDA-MB-468, 10 μM, read-out: Percentage growth inhibition (GI%)
  inhibition at 10 µM: 73%
MDA-MB-468
  Growth Percent: 27.53%
T-47D
  Growth Percent: 26.51%
T-47D; Homo sapiens, T47D, 10 μM, read-out: Percentage growth inhibition (GI%)
  inhibition at 10 µM: 74%
MCF7; Homo sapiens, MCF7, 10 μM, read-out: Percentage growth inhibition (GI%)
  inhibition at 10 µM: 59%
MCF7
  Growth Percent: 41.47%
